From patent publication US10308644B2, “Heterocyclic compounds as immunomodulators” (Incyte Corporation, priority 2016, dated 2019)

What follows are molecules tested against PD-1/PD-L1 (Homo sapiens (Human), UniProt Q9NZQ7) (assay: PD-1/PD-L1 Homogeneous Time-Resolved Fluorescence (HTRF) Binding Assay). Conditions: recombinant human PD-1 (3 nM) and PD-L1 (10 nM), 25° C., PBS pH 7.4.
Method: Example A. PD-1/PD-L1 Homogeneous Time-Resolved Fluorescence (HTRF) Binding Assay
The assays were conducted in a standard black 384-well polystyrene plate with a final volume of 20 μL. Inhibitors were first serially diluted in DMSO and then added to the plate wells before the addition of other reaction components. The final concentration of DMSO in the assay was 1%. The assays were carried out at 25° C. in the PBS buffer (pH 7.4) with 0.05% Tween-20 and 0.1% BSA. Recombinant human PD-L1 protein (19-238) with a His-tag at the C-terminus was purchased from AcroBiosystems (PD1-H5229). Recombinant human PD-1 protein (25-167) with Fc tag at the C-terminus was also purchased from AcroBiosystems (PD1-H5257). PD-L1 and PD-1 proteins were diluted in the assay buffer and 10 μL was added to the plate well. Plates were centrifuged and proteins were preincubated with inhibitors for 40 minutes. The incubation was followed by the addition of 10 μL of HTRF detection buffer supplemented with Europium cryptate-labeled anti-human IgG (PerkinElmer-AD0212) specific for Fc and anti-His antibody conjugated to SureLight®-Allophycocyanin (APC, PerkinElmer-AD0059H). After centrifugation, the plate was incubated at 25° C. for 60 min. before reading on a PHERAstar FS plate reader (665 nm/620 nm ratio). Final concentrations in the assay were—3 nM PD1, 10 nM PD-L1, 1 nM europium anti-human IgG and 20 nM anti-His-Allophycocyanin. IC50 determination was performed by fitting the curve of percent control activity versus the log of the inhibitor concentration using the GraphPad Prism 5.0 software.

Chain of PD-1/PD-L1 (Q9NZQ7 19-238): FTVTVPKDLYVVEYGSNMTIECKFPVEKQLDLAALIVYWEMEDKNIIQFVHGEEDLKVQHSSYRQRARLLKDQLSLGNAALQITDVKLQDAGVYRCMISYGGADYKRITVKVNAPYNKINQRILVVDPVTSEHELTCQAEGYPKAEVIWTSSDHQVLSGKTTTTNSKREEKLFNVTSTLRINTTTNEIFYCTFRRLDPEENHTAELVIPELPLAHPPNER

| SMILES | IC50 [nM] |
| --- | --- |
| Cc1c(Nc2nccc3cc(C(C)N4CC[C@@H](O)C4)cnc23)cccc1-c1cccc(-c2nc3cc(CN4CC[C@@H](C(=O)O)C4)cc(C#N)c3o2)c1C (stereo partly drawn) [Example 140, (3R)-1-((7-cyano-2-(3′-(3-(1-((R)-3-hydroxypyrrolidin-1-yl)ethyl)-1,7-naphthyridin-8-ylamino)-2,2′-dimethylbiphenyl-3-yl)benzo[d]oxazol-5-yl)methyl)pyrrolidine-3-carboxylic acid] | ≤ 10 |
| Cc1c(-c2nc3cc(CN4CC[C@@](C)(C(=O)O)C4)cc(C#N)c3o2)cccc1-c1cccc(-c2nc3c(s2)CN(C(=O)CN(C)C(C)C)C3)c1C [Example 217, (R)-1-((7-cyano-2-(3′-(5-(2-(isopropyl(methyl)amino)acetyl)-5,6-dihydro-4H-pyrrolo[3,4-d]thiazol-2-yl)-2,2′-dimethylbiphenyl-3-yl)benzo[d]oxazol-5-yl)methyl)-3-methylpyrrolidine-3-carboxylic acid] | ≤ 10 |
| Cc1nc(CN2CC[C@H](O)C2)cnc1OCc1cccc(-c2cccc(-c3nc4cc(CN5CCC(C(=O)O)C5)cc(Cl)c4o3)c2C)c1Cl (stereo partly drawn) [Example 153, 1-((7-chloro-2-(2′-chloro-3′-((5-(((S)-3-hydroxypyrrolidin-1-yl)methyl)-3-methylpyrazin-2-yloxy)methyl)-2-methylbiphenyl-3-yl)benzo[d]oxazol-5-yl)methyl)pyrrolidine-3-carboxylic acid] | ≤ 10 |
| Cc1c(-c2nc3cc(CN4CC[C@@H](C(=O)O)C4)cc(C#N)c3o2)cccc1-c1cccc(-c2nc3c(s2)CN(C(=O)CCN(C)C)C3)c1C [Example 106, (R)-1-((7-cyano-2-(3′-(5-(3-(dimethylamino)propanoyl)-5,6-dihydro-4H-pyrrolo[3,4-d]thiazol-2-yl)-2,2′-dimethylbiphenyl-3-yl)benzo[d]oxazol-5-yl)methyl)pyrrolidine-3-carboxylic acid] | ≤ 10 |
| Cc1c(Nc2nccc3cc(CN4CC[C@@H](O)C4)cnc23)cccc1-c1cccc(-c2nc3cc(CN4CC[C@@H](CC(=O)O)C4)cc(C#N)c3o2)c1C [Example 174, 2-((S)-1-((7-cyano-2-(3′-(3-(((R)-3-hydroxypyrrolidin-1-yl)methyl)-1,7-naphthyridin-8-ylamino)-2,2′-dimethylbiphenyl-3-yl)benzo[d]oxazol-5-yl)methyl)pyrrolidin-3-yl)acetic acid] | ≤ 10 |
| Cc1c(-c2nc3cc(CN4CC[C@@H](C(=O)O)C4)cc(C#N)c3o2)cccc1-c1cccc(NC(=O)c2nc3c(n2C)CC(C)N(C)C3)c1Cl (stereo partly drawn) [Example 160, (3R)-1-((2-(2′-chloro-2-methyl-3′-(1,5,6-trimethyl-4,5,6,7-tetrahydro-1H-imidazo[4,5-c]pyridine-2-carboxamido)biphenyl-3-yl)-7-cyanobenzo[d]oxazol-5-yl)methyl)pyrrolidine-3-carboxylic acid] | ≤ 10 |
| Cc1c(-c2nc3cc(CNCCO)cc(Cl)c3o2)cccc1-c1cccc(NC(=O)c2nc3c(s2)CN(C)CC3)c1Cl [Example 9, N-(2-chloro-3′-(7-chloro-5-(((2-hydroxyethyl)amino)methyl)benzo[d]oxazol-2-yl)-2′-methyl-[1,1′-biphenyl]-3-yl)-5-methyl-4,5,6,7-tetrahydrothiazolo[5,4-c]pyridine-2-carboxamide] | ≤ 10 |
| Cc1c(-c2nc3cc(CN4CC[C@@H](C(=O)O)C4)cc(C#N)c3o2)cccc1-c1cccc(-c2nc3c(s2)CN(C(C)CO)CC3)c1C (stereo partly drawn) [Example 66, (3R)-1-((7-cyano-2-(3′-(5-(1-hydroxypropan-2-yl)-4,5,6,7-tetrahydrothiazolo[5,4-c]pyridin-2-yl)-2,2′-dimethyl-[1,1′-biphenyl]-3-yl)benzo[d]oxazol-5-yl)methyl)pyrrolidine-3-carboxylic acid] | ≤ 10 |
| Cc1c(-c2nc3cc(CN4CC[C@@H](C(=O)O)C4)cc(C#N)c3o2)cccc1-c1cccc(-c2nc3c(s2)CNCC3)c1C [Example 72, (R)-1-((7-cyano-2-(2,2′-dimethyl-3′-(4,5,6,7-tetrahydrothiazolo[5,4-c]pyridin-2-yl)biphenyl-3-yl)benzo[d]oxazol-5-yl)methyl)pyrrolidine-3-carboxylic acid] | ≤ 10 |
| Cc1c(COc2cc(OCc3cncc(C#N)c3)c(CNCCO)cc2Cl)cccc1-c1cccc(-c2nc3cc(CN4CC[C@@H](C(=O)O)C4)cc(Cl)c3o2)c1C [Example 150, (R)-1-((7-chloro-2-(3′-((2-chloro-5-((5-cyanopyridin-3-yl)methoxy)-4-(((2-hydroxyethyl)amino)methyl)phenoxy)methyl)-2,2′-dimethyl-[1,1′-biphenyl]-3-yl)benzo[d]oxazol-5-yl)methyl)pyrrolidine-3-carboxylic acid] | 10 to 100 |
| Cc1c(Nc2nccc3cc(CN4CC[C@](C)(O)C4)cnc23)cccc1-c1cccc(-c2nc3cc(CN4CC[C@@H](C(=O)O)C4)cc(C#N)c3o2)c1C [Example 138, (R)-1-((7-cyano-2-(3′-(3-(((S)-3-hydroxy-3-methylpyrrolidin-1-yl)methyl)-1,7-naphthyridin-8-ylamino)-2,2′-dimethylbiphenyl-3-yl)benzo[d]oxazol-5-yl)methyl)pyrrolidine-3-carboxylic acid] | ≤ 10 |
| Cc1c(-c2nc3c(o2)CN(C(=O)CN2CC(C)(O)C2)C3)cccc1-c1cccc(-c2nc3cc(CN4CC[C@@H](C(=O)O)C4)cc(C#N)c3o2)c1C [Example 129, (R)-1-((7-cyano-2-(3′-(5-(2-(3-hydroxy-3-methylazetidin-1-yl)acetyl)-5,6-dihydro-4H-pyrrolo[3,4-d]oxazol-2-yl)-2,2′-dimethyl-[1,1′-biphenyl]-3-yl)benzo[d]oxazol-5-yl)methyl)pyrrolidine-3-carboxylic acid] | ≤ 10 |
| Cc1c(Nc2nccc3cc(CNC(C)(C)CO)cnc23)cccc1-c1cccc(-c2nc3cc(CN4CC[C@@](C)(C(=O)O)C4)cc(C#N)c3o2)c1C [Example 198, (R)-1-((7-cyano-2-(3′-(3-((1-hydroxy-2-methylpropan-2-ylamino)methyl)-1,7-naphthyridin-8-ylamino)-2,2′-dimethylbiphenyl-3-yl)benzo[d]oxazol-5-yl)methyl)-3-methylpyrrolidine-3-carboxylic acid] | ≤ 10 |
| Cc1c(Nc2nccc3cc(C4=NCCN4)cnc23)cccc1-c1cccc(-c2nc3cc(CN4CC[C@@H](C(=O)O)C4)cc(C#N)c3o2)c1C [Example 166, (R)-1-((7-cyano-2-(3′-(3-(4,5-dihydro-1H-imidazol-2-yl)-1,7-naphthyridin-8-ylamino)-2,2′-dimethylbiphenyl-3-yl)benzo[d]oxazol-5-yl)methyl)pyrrolidine-3-carboxylic acid] | ≤ 10 |
| Cc1c(-c2nc3cc(CN4CC5(CC(C(=O)O)C5)C4)cc(C#N)c3o2)cccc1-c1cccc(-c2nc3c(s2)CN(C(=O)CN(C)CCO)C3)c1C [Example 230, 2-((7-cyano-2-(3′-(5-(2-((2-hydroxyethyl)(methyl)amino)acetyl)-5,6-dihydro-4H-pyrrolo[3,4-d]thiazol-2-yl)-2,2′-dimethylbiphenyl-3-yl)benzo[d]oxazol-5-yl)methyl)-2-azaspiro[3.3]heptane-6-carboxylic acid] | ≤ 10 |
| Cc1c(Nc2nccc3cc(CN4CCC4)cnc23)cccc1-c1cccc(-c2nc3cc(CN4CC[C@@H](C(=O)O)C4)cc(C#N)c3o2)c1C [Example 135, (R)-1-((2-(3′-(3-(azetidin-1-ylmethyl)-1,7-naphthyridin-8-ylamino)-2,2′-dimethylbiphenyl-3-yl)-7-cyanobenzo[d]oxazol-5-yl)methyl)pyrrolidine-3-carboxylic acid] | ≤ 10 |
| Cc1c(-c2nc3cc(CN4CC[C@@H](O)C4)cc(C#N)c3o2)cccc1-c1cccc(NC(=O)c2nc3c(n2C)CCN(C[C@H]2CC[C@H](C(=O)O)CC2)C3)c1Cl [Example 261, trans-4-((2-(2-chloro-3′-(7-cyano-5-(((R)-3-hydroxypyrrolidin-1-yl)methyl)benzo[d]oxazol-2-yl)-2′-methylbiphenyl-3-ylcarbamoyl)-1-methyl-6,7-dihydro-1H-imidazo[4,5-c]pyridin-5 (4H)-yl)methyl)cyclohexanecarboxylic acid] | ≤ 10 |
| Cc1c(-c2nc3cc(CN4CC[C@@H](C(=O)NCCO)C4)cc(C#N)c3o2)cccc1-c1cccc(-c2nc3c(s2)CN(C(C)C)CC3)c1C [Example 119, (R)-1-((7-cyano-2-(3′-(5-isopropyl-4,5,6,7-tetrahydrothiazolo[5,4-c]pyridin-2-yl)-2,2′-dimethyl-[1,1′-biphenyl]-3-yl)benzo[d]oxazol-5-yl)methyl)-N-(2-hydroxyethyl)pyrrolidine-3-carboxamide] | ≤ 10 |
| Cc1c(-c2nc3cc(CN4CCCC[C@H]4C(=O)O)cc(Cl)c3o2)cccc1-c1cccc(NC(=O)c2nc3c(s2)CN(C)CC3)c1Cl [Example 8, (S)-1-((7-chloro-2-(2′-chloro-2-methyl-3′-(5-methyl-4,5,6,7-tetrahydrothiazolo[5,4-c]pyridine-2-carboxamido)-[1,1′-biphenyl]-3-yl)benzo[d]oxazol-5-yl)methyl)piperidine-2-carboxylic acid] | ≤ 10 |
